Measured values taken from patent publication EP4335452A1, “PHARMACEUTICAL COMPOSITION FOR ENHANCING ANTICANCER EFFECT OF ANTICANCER DRUG” (L-Base Co., Ltd., priority 2021, dated 2024).
Ends that are not written are not given here.

Legend:
[1] = system: lung cancer cell line H1975; assay: MTT assay, cell viability, lung cancer cell line H1975; assay type: cell-based; conditions: 48 hours
[2] = system: breast cancer cell line HCC1937; assay: MTT assay, cell viability, breast cancer cell line HCC1937; assay type: cell-based; conditions: Olaparib 2.5 µM alone, 24 hours, FIG. 4B
[3] = system: H1975/OR; assay: MTT assay, cell viability, H1975/OR; assay type: cell-based; conditions: Osimertinib 2.5 µM alone, 68 hours, FIG. 1G
Protocol: (§1) Specifically, cells were seeded at 2 × 10^3/100 µl per well on a 96-well plate, and after culturing for 24 hours, the compound according to the present invention was administered; 4 hours later, anticancer drugs were treated to each cancer cell. The treatment concentration and treatment time of the compound and anticancer drug are specifically described in the embodiment. After completing the treatment of the compound and anticancer drug, CellTiter-96® reagent (Promega Co., USA) was reacted at 5% CO2, 37°C after adding 10 µl per well. After 3 hours, absorbance was measured at 490 nm using a spectrophotometer (SPECTROstar^Nano, BMG).

[4] = system: H820 lung cancer cell line; assay: Heterotransplant lung cancer animal model (H820), tumor growth; assay type: in vivo; conditions: H820 nude mice; Osimertinib single administration, 2.5 mpk orally daily; FIG. 6A
Protocol: The test substances were administered intravenously and orally 7 times at 2-day intervals.
Nude mice transplanted with H820 lung cancer cell line, an animal model of lung cancer described in the "Experimental Materials and Methods," was treated 7 times at a two-day interval for 14 days with 3-PhPh-[…] at a dose of 10 mpk, and Osimertinib was orally administered daily at 2.5 mpk. Then, the growth of the tumor was compared.

[5] = system: H1975 cell line; assay: Heterotransplant lung cancer resistance animal model (H1975), tumor growth after Osimertinib resistance; assay type: in vivo, Balb/C nude mice
Protocol: H1975 cells were mixed with matrigel in a 1:1 ratio at a concentration of 5 × 10^6 cells/mouse, and each was subcutaneously inoculated at 200µl into the flank of the mouse once. After the inoculation, it was confirmed that the volume of the formed tumor reached 70~130 mm^3, and then random grouping was carried out. After the grouping, Osimertinib was administered orally every day, and after the growth of the tumor was inhibited, the point of re-growth was identified and the co-administration with the test substance was started. The test substances were administered intravenously 7 times at 2-day intervals.
After inoculating the H1975 cell line in 4-week-old female Balb/C nude mice, the presence and growth of the tumor were observed and the short and long axes of the tumor were measured to calculate the volume. When the volume of the tumor reached 70-120 mm^3, the groups were randomly separated and PBS, the negative control group, and Osimertinib at 5 mpk were orally administered daily.
The first day of administration was set as day 1, and the volume of the tumor was measured twice a week.

[6] = system: lung cancer cell line H1975; assay: MTT assay, cell viability, lung cancer cell line H1975; assay type: cell-based; conditions: Ac-AQTGTGKT 10 µM alone, 48 hours, FIG. 1C
Protocol: as §1

Nc1nc2[nH]cc(CCc3ccc(C(=O)N[C@@H](CCC(=O)O)C(=O)O)cc3)c2c(=O)[nH]1 [Alimta, Alimta (Pemetrexed)]
cell viability decreased compared to the control group ([1]; Alimta 0.2 µM alone, FIG. 1E): about 6%

O=C(c1cc(Cc2n[nH]c(=O)c3ccccc23)ccc1F)N1CCN(C(=O)C2CC2)CC1 [Olaparib]
decrease in cell viability compared to the control group [2]: no decrease in cell viability

C=CC(=O)Nc1cc(Nc2nccc(-c3cn(C)c4ccccc34)n2)c(OC)cc1N(C)CCN(C)C [Osimertinib]
cell viability decreased compared to the control group ([1]; Osimertinib 1 µM alone, FIG. 1B): about 5% | cell viability decreased compared to the control group [3]: about 7% | tumor growth reduced compared to the control group (PBS administered group) [4]: 46% | size of the tumor on the day of termination of administration (average) ([5]; H1975, after Osimertinib resistance, Osimertinib 5 mpk orally daily + PBS intravenously at a two-day interval, FIG. 6B): 692.6 mm^3 | tumor viability rate (tumor size on the 28th day versus the last measured tumor size) ([5]; H1975 Balb/C nude mice, Osimertinib 5 mpk orally daily, regrowth from the 24th day, judged as acquired resistance): over 50%

Ac-AQTGTGKT
cell viability decreased compared to the control group [6]: about 14%
